From ChEMBL document CHEMBL3832761, “MMV Pathogen Box Bioactivity Data” (2017)

Assays:
[1] = system: Leishmania donovani; experiment: AntiLeishmania activity L. donovani (macrophages) IC50 (uM); format: functional, organism-based
[2] = system: Leishmania donovani; experiment: AntiLeishmania activity L. donovani (axenic) IC50 (uM); format: functional, organism-based
[3] = system: L6; experiment: L6 CC50 (uM) Cytotoxicity; format: functional; conditions: Rattus norvegicus
[4] = system: HepG2; experiment: Cytotoxicity data HepG2 CC20 (uM); format: functional
[5] = system: Leishmania; experiment: AntiLeishmania activity Toxicity on infected PMM (uM); format: functional
[6] = system: Trypanosoma brucei; experiment: AntiTrypanosoma brucei activity T. b. rhodesiense IC50 (uM); format: functional, organism-based
[7] = system: MRC5; experiment: MRC5 CC50 (uM) Cytotoxicity; format: functional; conditions: Homo sapiens
[8] = system: Trypanosoma brucei; experiment: AntiTrypanosoma brucei activity T. b. brucei IC50 (uM); format: functional, organism-based
[9] = system: Trypanosoma cruzi; experiment: AntiTrypanosoma cruzi activity IC50 (uM); format: functional, organism-based
[10] = PMM CC50 (uM) Cytotoxicity; format: functional; conditions: Macrophage
[11] = system: Leishmania infantum; experiment: AntiLeishmania activity L. infantum (macrophages) IC50 (uM); format: functional, organism-based
[12] = system: HepG2; experiment: HepG2 CC50 (uM) Cytotoxicity; format: functional; conditions: Homo sapiens
[13] = system: Plasmodium falciparum; experiment: Antimalarial activity: Asexual Blood Stage Plasmodium falciparum 3D7 IC50 (uM); format: functional, organism-based
[14] = system: Plasmodium falciparum; experiment: Antimalarial activity: Asexual Blood Stage Plasmodium falciparum Dd2 IC50 (uM); format: functional, organism-based
[15] = system: Plasmodium falciparum; experiment: Antimalarial activity: Gametocytes Plasmodium falciparum NF54 Gametocytes Stage V IC50 (uM); format: functional, organism-based
[16] = system: Plasmodium berghei; experiment: Antimalarial activity: Liver Stage Plasmodium berghei sporozoite Luciferase assay IC50 (uM); format: functional, organism-based
[17] = system: Plasmodium falciparum; experiment: Antimalarial activity: Asexual Blood Stage Plasmodium falciparum W2 IC50 (uM); format: functional, organism-based
[18] = system: Plasmodium berghei; experiment: Antimalarial activity: Liver Stage Plasmodium berghei sporozoite Luciferase assay: inhibition at 10 uM (%); format: functional
[19] = system: Plasmodium falciparum; experiment: Antimalarial activity: Gametocytes Plasmodium falciparum NF54 Gametocytes Stage V: inhibition at 10 uM (%); format: functional
[20] = HL60 CC50 (uM) Cytotoxicity; format: functional; conditions: HL-60
[21] = system: Toxoplasma gondii; experiment: AntiToxoplasma gondii activity data 2-day killing assay: inhibition at 10 uM (%) Experiment D; format: functional
[22] = system: Toxoplasma gondii; experiment: AntiToxoplasma gondii activity data 2-day killing assay: IC50 (uM), Experiment F; format: functional, organism-based; conditions: Toxoplasma gondii, 48 h; read-out: IC50
[23] = system: Toxoplasma gondii; experiment: AntiToxoplasma gondii activity data 2-day killing assay: inhibition at 10 uM (%) Experiment E; format: functional
[24] = system: Toxoplasma gondii; experiment: AntiToxoplasma gondii activity data Inhibition of plaque forming efficiency (%) Experiment A; format: functional; set-up: concentration or dose not given beside the values
[25] = system: Toxoplasma gondii; experiment: AntiToxoplasma gondii activity data 2-day killing assay: inhibition at 10 uM (%) Experiment C; format: functional; conditions: 48 h

Compound	IC50 [1] [µM]	IC50 [2] [µM]	IC50 [6] [µM]	IC50 [8] [µM]	IC50 [9] [µM]	IC50 [11] [µM]	IC50 [13] [µM]	IC50 [14] [µM]	IC50 [15] [µM]	IC50 [16] [µM]	IC50 [17] [µM]	CC50 [3] [µM]	CC20 [4] [µM]	Toxicity on infected macrophages [5] [µM]	CC50 [7] [µM]	CC50 [10] [µM]	CC50 [12] [µM]	Inhibition [18] [%]	Inhibition [19] [%]	further results
O=C(Nc1c(O)cccc1-c1nc2c(C(=O)O)cccc2o1)c1cc(-c2ccccc2)on1	> 30	0.57	> 32	> 32	> 32	> 32	–	–	–	–	–	21.9	5.73	>30	> 32	> 32	–	–	–	–
COC(=O)c1cccc2oc(-c3cccc(OC)c3NC(=O)c3cc(-c4ccccc4)on3)nc12	> 30	3.95	> 32	> 32	> 32	> 32	–	–	–	–	–	50	>80	>30	> 32	> 32	–	–	–	–
CN1CCC(c2cc(-c3ccncc3)c(-c3ccc(F)cc3)[nH]2)CC1	–	–	–	–	–	–	–	–	–	–	–	–	–	–	–	–	–	–	–	CC50 [20]: > 50 µM; Inhibition [21]: 100%; IC50 [22]: 1.21 µM; Inhibition [23]: 97.9%; Inhibition [24]: 100%; inhibition at 10 µM [25]: 99.3%
Cc1nc(-c2ccccn2)nc(NCCc2ccc(S(C)(=O)=O)cc2)c1Cl	> 30	2.05	> 32	> 32	4.44	> 32	–	–	–	–	–	13	27.9	30	> 32	> 32	–	–	–	–
NS(=O)(=O)c1cccc(-c2ccc3ncc(N4CCOCC4)nc3c2)c1	–	–	–	–	–	–	1.5	1.66	1.33	1.82	1.85	–	7.61	–	–	–	> 10	100	92	–
O=C(Nc1ccccc1-c1nc2c(C(=O)O)cccc2o1)c1ccccc1	> 30	0.4	> 32	> 32	> 32	> 32	–	–	–	–	–	45.4	>80	>30	> 32	> 32	–	–	–	–
CC(C)n1nc(-c2cc3c(Cl)cccc3[nH]2)c2c(N)ncnc21	–	–	–	–	–	–	–	–	–	–	–	–	–	–	–	–	–	–	–	CC50 [20]: > 25 µM; Inhibition [21]: 100%; IC50 [22]: 0.16 µM; Inhibition [23]: 99.5%; Inhibition [24]: 100%; inhibition at 10 µM [25]: 99.6%
COc1ccc(C(=N)N)cc1-c1cn(-c2ccc(C(=N)N)cc2)nn1	> 30	14.3	< 0.13	0.25	21.5	> 32	–	–	–	–	–	26.7	5.47	30	> 32	> 32	–	–	–	–
O=C(Nc1ccc(N2CCNCC2)cc1)c1ccn2ncc(-c3cccc(Cl)c3)c2n1	–	–	–	–	–	–	0.78	1.19	0.62	> 10	1.4	–	0.76	–	–	–	> 10	96	97	–
c1ccc(Oc2ccc(-c3cc(N4CCOCC4)[nH]n3)cc2)cc1	> 30	3.87	1.29	3.45	16	21.5	–	–	–	–	–	10	7.47	>30	> 32	> 32	–	–	–	–
CC(C)(C)n1nc(Cc2ccc(F)c(Cl)c2)c2c(N)ncnc21	–	–	–	–	–	–	–	–	–	–	–	–	–	–	–	–	–	–	–	CC50 [20]: > 25 µM; Inhibition [21]: 100%; IC50 [22]: 1.7 µM; Inhibition [23]: 95.5%; Inhibition [24]: 100%; inhibition at 10 µM [25]: 98.3%
CC(C)(C)n1nc(-c2ccccc2)c2c(N)ncnc21	–	–	–	–	–	–	–	–	–	–	–	–	–	–	–	–	–	–	–	CC50 [20]: > 25 µM; Inhibition [21]: 100%; IC50 [22]: 1.1 µM; Inhibition [23]: 97.5%; Inhibition [24]: 100%; inhibition at 10 µM [25]: 96.5%
CN(C(=O)c1cc2c(-c3cncnc3)cccc2[nH]1)c1ccccc1	–	–	–	–	–	–	0.72	0.67	0.57	1.02	0.79	–	6.04	–	–	–	> 10	100	81	–
CCn1ncc2c(NC3CCOCC3)c(CNC(=O)c3ccnn3C)c(C)nc21	–	–	–	–	–	–	0.28	0.39	0.24	1.6	0.6	–	24.5	–	–	–	> 10	100	89	–
O=C(Nc1ccccc1)c1ccc(-c2cc3ccncc3cc2OC2CCNCC2)s1	–	–	–	–	–	–	0.57	1.24	2.28	7.37	1.56	–	3.65	–	–	–	> 7.5	100	96	–

Second part, led by results:

IC50 [1] [µM]	IC50 [2] [µM]	IC50 [6] [µM]	IC50 [8] [µM]	IC50 [9] [µM]	IC50 [11] [µM]	IC50 [13] [µM]	IC50 [14] [µM]	IC50 [15] [µM]	IC50 [16] [µM]	IC50 [17] [µM]	Compound	CC50 [3] [µM]	CC20 [4] [µM]	Toxicity on infected macrophages [5] [µM]	CC50 [7] [µM]	CC50 [10] [µM]	CC50 [12] [µM]	Inhibition [18] [%]	Inhibition [19] [%]	further results
5.17	0.25	27.2	> 32	4.25	16.2	–	–	–	–	–	FC(F)(F)c1cc(NCCc2ccccc2)nc(-c2ccccn2)n1	5.3	>80	30	> 32	16	–	–	–	–
–	–	–	–	–	–	0.82	2.06	1.42	4.55	2.14	CN1CCC(NCc2cccc(-c3ccc(S(=O)(=O)NCc4ccccc4)cc3)c2)CC1	–	4.15	–	–	–	> 10	99	95	–
–	–	–	–	–	–	0.6	1.1	3.13	> 10	1.23	CN(C)c1cc(NC(=O)Nc2ccccc2)c2ccccc2n1	–	6.86	–	–	–	> 10	98	88	–
2.6	0.02	11.8	14.9	0.88	4.06	–	–	–	–	–	Cc1nc(-c2ccccn2)nc(N(C)CCc2ccccc2)c1Cl	9.6	11.3	16.7	21.7	4	–	–	–	–
22.2	> 100	16.4	24.9	4.62	25.4	–	–	–	–	–	N#CCN(CCCCN1CCN(c2ccc(F)cc2)CC1)C(=O)OCc1ccccc1	15.3	–	>30	> 32	> 32	–	–	–	Toxicity [5]: >30 µM
26.1	9.7	5.26	15.1	16	> 32	–	–	–	–	–	c1ccc(Oc2ccc(-c3cc(CN4CCOCC4)[nH]n3)cc2)cc1	22.9	28.9	30	> 32	> 32	–	–	–	–
12.8	15.6	22.9	> 32	1.36	16.2	–	–	–	–	–	Clc1ccc(Cl)c(CO[C@H]2CCCC[C@@H]2n2ccnc2)c1	30.7	37.1	30	> 32	16	–	–	–	–
> 30	6.6	> 32	> 32	3.08	> 32	–	–	–	–	–	Clc1cccc(CO[C@H]2CCc3ccccc3[C@@H]2n2ccnn2)c1	64	>80	>30	> 32	> 32	–	–	–	–
